Measured values as given in patent EP0252525B1, “Alpha-amylase assay using modified oligosaccharide and process for producing said modified oligosaccharide” (WAKO PURE CHEMICAL INDUSTRIES, LTD, priority 1986, dated 1988).

Legend:
Assay type in all cases: biochemical
[1] = molecular target: T1, human salivary α-amylase (HSA) (Homo sapiens, UniProt P0DUB6); test: Hydrolysis rate of substrates by α-amylase (relative to G5P); settings: substrate 1.0 mM, pH 7, value of G5P taken as 1
T1 sequence (P0DUB6 16-511): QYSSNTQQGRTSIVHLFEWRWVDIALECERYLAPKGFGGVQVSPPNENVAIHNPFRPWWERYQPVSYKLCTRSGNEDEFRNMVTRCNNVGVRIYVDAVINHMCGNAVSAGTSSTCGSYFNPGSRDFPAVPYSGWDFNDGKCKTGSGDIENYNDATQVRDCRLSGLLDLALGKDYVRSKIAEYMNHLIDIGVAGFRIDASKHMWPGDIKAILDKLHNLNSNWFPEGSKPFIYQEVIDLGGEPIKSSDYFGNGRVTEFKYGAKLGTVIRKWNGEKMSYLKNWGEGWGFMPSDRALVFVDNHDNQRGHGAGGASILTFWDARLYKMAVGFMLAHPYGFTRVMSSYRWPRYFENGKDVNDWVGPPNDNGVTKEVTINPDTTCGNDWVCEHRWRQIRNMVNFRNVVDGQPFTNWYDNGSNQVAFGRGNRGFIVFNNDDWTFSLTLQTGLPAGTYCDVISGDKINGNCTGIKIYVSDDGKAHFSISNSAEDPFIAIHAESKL
Experimental: (§1) The above-mentioned advantages can be shown by using the following oligosaccharides: [drawing 6] n = 2: BG4P n = 3: BG5P (the present invention) n = 4: BG6P n = 5: BG7P [drawing 7] n = 2: G4P n = 3: G5P (standard) n = 4: G6P n = 5: G7P [drawing 8] n = 2: BDG4P n = 3: BDG5P n = 4: BDG6P n = 5: BDG7P The hydrolysis rate is measured by using human pancreatic α-amylase (HPA) or human salivary α-amylase (HSA) for each substrate (1.0 mM) at pH 7, and evaluating by means of relative values by taking the value of G5P as 1.

[2] = molecular target: T2, human pancreatic α-amylase (HPA) (Homo sapiens, UniProt P04746); test: as above; settings: substrate 1.0 mM, pH 7, value of G5P taken as 1
T2 sequence (P04746 16-511): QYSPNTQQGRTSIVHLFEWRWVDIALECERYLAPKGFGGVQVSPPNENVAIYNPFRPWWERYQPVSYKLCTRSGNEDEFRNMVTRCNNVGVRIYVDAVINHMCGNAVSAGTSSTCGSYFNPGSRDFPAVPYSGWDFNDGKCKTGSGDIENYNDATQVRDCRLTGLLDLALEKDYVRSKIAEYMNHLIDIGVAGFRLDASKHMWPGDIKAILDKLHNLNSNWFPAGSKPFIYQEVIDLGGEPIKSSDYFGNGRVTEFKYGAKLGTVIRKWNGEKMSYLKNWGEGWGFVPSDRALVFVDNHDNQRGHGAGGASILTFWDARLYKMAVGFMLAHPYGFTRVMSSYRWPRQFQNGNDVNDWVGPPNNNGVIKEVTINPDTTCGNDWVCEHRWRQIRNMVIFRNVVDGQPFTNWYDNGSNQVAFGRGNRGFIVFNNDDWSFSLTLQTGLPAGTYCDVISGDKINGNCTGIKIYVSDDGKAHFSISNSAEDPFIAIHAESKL
Experimental: as §1

[3] = molecular target: T3, HPA (Homo sapiens, UniProt P04746); test: Binding mode (distribution of hydrolysis products) by HPLC; settings: for Hydrolysis product G2P: share of product G2P; for Hydrolysis product G3P: share of product G3P; for Hydrolysis product G4P: share of product G4P; for Hydrolysis product GP: share of product GP
T3 sequence (P04746 16-511): T2 sequence (P04746 16-511)
Experimental: (§2) The binding mode of each substrate were measured with high-performance liquid chromatography (HPLC) as described above.

[4] = molecular target: T4, HSA (Homo sapiens, UniProt P0DUB6); test: as above; settings: for Hydrolysis product G2P: share of product G2P; for Hydrolysis product G3P: share of product G3P; for Hydrolysis product G4P: share of product G4P; for Hydrolysis product GP: share of product GP
T4 sequence (P0DUB6 16-511): T1 sequence (P0DUB6 16-511)
Experimental: as §2

SMILES	hydrolysis rate (relative value) [1]	hydrolysis rate (relative value) [2]	Hydrolysis product G2P [3] [%]	Hydrolysis product G3P [3] [%]	Hydrolysis product G4P [3] [%]	Hydrolysis product GP [3] [%]	Hydrolysis product G2P [4] [%]	Hydrolysis product G3P [4] [%]	Hydrolysis product G4P [4] [%]	Hydrolysis product GP [4] [%]	Hydrolysis product (result in words) [3]	Hydrolysis product (result in words) [4]
O=[N+]([O-])c1ccc(O[C@H]2O[C@H](CO)[C@@H](O[C@H]3O[C@H](CO)[C@@H](O[C@H]4O[C@H](CO)[C@@H](O[C@H]5O[C@H](COCc6ccccc6)[C@@H](O)[C@H](O)[C@H]5O)[C@H](O)[C@H]4O)[C@H](O)[C@H]3O)[C@H](O)[C@H]2O)cc1 [BG4P]	0.60	0.55	8	0	0	92	10	0	0	90	–	–
O=[N+]([O-])c1ccc(O[C@H]2O[C@H](CO)[C@@H](O[C@H]3O[C@H](CO)[C@@H](O[C@H]4O[C@H](CO)[C@@H](O[C@H]5O[C@@H]6COC(c7ccccc7)O[C@H]6[C@H](O)[C@H]5O)[C@H](O)[C@H]4O)[C@H](O)[C@H]3O)[C@H](O)[C@H]2O)cc1 (stereo partly drawn) [BDG4P]	0	0	–	–	–	–	–	–	–	–	Not hydrolyzed	Not hydrolyzed
O=[N+]([O-])c1ccc(O[C@H]2O[C@H](CO)[C@@H](O[C@H]3O[C@H](CO)[C@@H](O[C@H]4O[C@H](CO)[C@@H](O[C@H]5O[C@H](CO)[C@@H](O[C@H]6O[C@H](CO)[C@@H](O[C@H]7O[C@H](COCc8ccccc8)[C@@H](O)[C@H](O)[C@H]7O)[C@H](O)[C@H]6O)[C@H](O)[C@H]5O)[C@H](O)[C@H]4O)[C@H](O)[C@H]3O)[C@H](O)[C@H]2O)cc1 [BG6P]	1.4	1.4	23	73	0	4	29	68	0	3	–	–
O=[N+]([O-])c1ccc(O[C@H]2O[C@H](CO)[C@@H](O[C@H]3O[C@H](CO)[C@@H](O[C@H]4O[C@H](CO)[C@@H](O[C@H]5O[C@H](CO)[C@@H](O[C@H]6O[C@@H]7COC(c8ccccc8)O[C@H]7[C@H](O)[C@H]6O)[C@H](O)[C@H]5O)[C@H](O)[C@H]4O)[C@H](O)[C@H]3O)[C@H](O)[C@H]2O)cc1 (stereo partly drawn) [BDG5P]	0	0	–	–	–	–	–	–	–	–	Not hydrolyzed	Not hydrolyzed
O=[N+]([O-])c1ccc(O[C@H]2O[C@H](CO)[C@@H](O[C@H]3O[C@H](CO)[C@@H](O[C@H]4O[C@H](CO)[C@@H](O[C@H]5O[C@H](CO)[C@@H](O[C@H]6O[C@H](CO)[C@@H](O[C@H]7O[C@@H]8COC(c9ccccc9)O[C@H]8[C@H](O)[C@H]7O)[C@H](O)[C@H]6O)[C@H](O)[C@H]5O)[C@H](O)[C@H]4O)[C@H](O)[C@H]3O)[C@H](O)[C@H]2O)cc1 (stereo partly drawn) [BDG6P]	0.5	0.4	73	12	0	15	66	10	0	24	–	–

Now from value to molecule:

hydrolysis rate (relative value) [1]	hydrolysis rate (relative value) [2]	Hydrolysis product G2P [3] [%]	Hydrolysis product G3P [3] [%]	Hydrolysis product G4P [3] [%]	Hydrolysis product GP [3] [%]	Hydrolysis product G2P [4] [%]	Hydrolysis product G3P [4] [%]	Hydrolysis product G4P [4] [%]	Hydrolysis product GP [4] [%]	Hydrolysis product (result in words) [3]	Hydrolysis product (result in words) [4]	SMILES
1.7	1.7	22	76	0	2	40	53	0	7	–	–	O=[N+]([O-])c1ccc(O[C@H]2O[C@H](CO)[C@@H](O[C@H]3O[C@H](CO)[C@@H](O[C@H]4O[C@H](CO)[C@@H](O[C@H]5O[C@H](CO)[C@@H](O[C@H]6O[C@H](CO)[C@@H](O[C@H]7O[C@H](CO)[C@@H](O)[C@H](O)[C@H]7O)[C@H](O)[C@H]6O)[C@H](O)[C@H]5O)[C@H](O)[C@H]4O)[C@H](O)[C@H]3O)[C@H](O)[C@H]2O)cc1 [Substrate G6P]
0.75	0.70	55	0	0	45	74	0	0	26	–	–	O=[N+]([O-])c1ccc(O[C@H]2O[C@H](CO)[C@@H](O[C@H]3O[C@H](CO)[C@@H](O[C@H]4O[C@H](CO)[C@@H](O[C@H]5O[C@H](CO)[C@@H](O)[C@H](O)[C@H]5O)[C@H](O)[C@H]4O)[C@H](O)[C@H]3O)[C@H](O)[C@H]2O)cc1 [Substrate G4P]
1.5	1.5	20	38	40	2	15	38	45	2	–	–	O=[N+]([O-])c1ccc(O[C@H]2O[C@H](CO)[C@@H](O[C@H]3O[C@H](CO)[C@@H](O[C@H]4O[C@H](CO)[C@@H](O[C@H]5O[C@H](CO)[C@@H](O[C@H]6O[C@H](CO)[C@@H](O[C@H]7O[C@H](CO)[C@@H](O[C@H]8O[C@H](COCc9ccccc9)[C@@H](O)[C@H](O)[C@H]8O)[C@H](O)[C@H]7O)[C@H](O)[C@H]6O)[C@H](O)[C@H]5O)[C@H](O)[C@H]4O)[C@H](O)[C@H]3O)[C@H](O)[C@H]2O)cc1 [BG7P]
1.8	1.8	14	30	55	1	8	30	60	2	–	–	O=[N+]([O-])c1ccc(O[C@H]2O[C@H](CO)[C@@H](O[C@H]3O[C@H](CO)[C@@H](O[C@H]4O[C@H](CO)[C@@H](O[C@H]5O[C@H](CO)[C@@H](O[C@H]6O[C@H](CO)[C@@H](O[C@H]7O[C@H](CO)[C@@H](O[C@H]8O[C@H](CO)[C@@H](O)[C@H](O)[C@H]8O)[C@H](O)[C@H]7O)[C@H](O)[C@H]6O)[C@H](O)[C@H]5O)[C@H](O)[C@H]4O)[C@H](O)[C@H]3O)[C@H](O)[C@H]2O)cc1 [Substrate G7P]
